# Where “and” joins values, the source holds several entries; their conditions need not be identical. Equal values may be shown once.
# Biological target: T1, Steroid 17-alpha-hydroxylase/17,20 lyase (Rattus norvegicus, UniProt P11715)
# T1 sequence (P11715 whole entry): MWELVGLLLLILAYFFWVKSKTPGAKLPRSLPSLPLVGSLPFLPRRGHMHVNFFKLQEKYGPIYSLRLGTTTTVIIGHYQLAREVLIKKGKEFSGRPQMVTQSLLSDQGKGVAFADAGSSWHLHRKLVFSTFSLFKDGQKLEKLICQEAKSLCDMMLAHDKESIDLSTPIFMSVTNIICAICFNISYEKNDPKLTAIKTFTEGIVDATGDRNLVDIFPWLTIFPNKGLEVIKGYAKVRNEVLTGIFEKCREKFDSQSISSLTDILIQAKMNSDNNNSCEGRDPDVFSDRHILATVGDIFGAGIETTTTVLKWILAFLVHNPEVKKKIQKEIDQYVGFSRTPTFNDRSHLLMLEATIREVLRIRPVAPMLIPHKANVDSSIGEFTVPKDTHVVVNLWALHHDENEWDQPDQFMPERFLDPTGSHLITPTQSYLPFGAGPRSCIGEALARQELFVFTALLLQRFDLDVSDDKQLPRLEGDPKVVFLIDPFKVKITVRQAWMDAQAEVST
row,SMILES,IC50
1,CCC1CCC(OC(=O)Cc2ccncc2)CC1 (stereo unspecified),2.7 µM and 2 µM
2,CC(C)(C)C1CCC(OC(=O)Cc2ccncc2)CC1 (stereo unspecified),3 µM and 2.1 µM
3,CC(C)(C(=O)OC1CCCCC1)c1ccncc1,4.5 µM and 3.6 µM
4,O=C(Cc1ccncc1)OC12CC3CC(CC(C3)C1)C2,0.61 µM and 0.56 µM
5,CC1(OC(=O)Cc2ccncc2)CCCCC1,11 µM and 10 µM
6,O=C(Cc1ccncc1)Oc1ccccc1,> 100 µM
7,"CC1(C)C2CCC1(C)C(OC(=O)Cc1ccncc1)C2 (single isomer, unassigned; (-))",2.2 µM and 1.5 µM
8,CC1CCC(OC(=O)Cc2ccncc2)CC1 (stereo in doubt; 6),36 µM and 25 µM
9,O=C(Cc1ccncc1)OC1=CC2CCC1C2 (stereo in doubt; 14),41 µM and 31 µM
10,O=C(Cc1ccncc1)OC1=CC2CCC1C2 (stereo in doubt; 15),46 µM and 45 µM
11,CC1(C)C2CCC1(C)C(OC(=O)Cc1ccncc1)C2 (stereo in doubt; 17),0.54 µM and 0.59 µM
12,CC1C(OC(=O)Cc2ccncc2)CC2CC1C2(C)C (stereo in doubt; 18),0.28 µM and 0.26 µM
13,CC1C(OC(=O)Cc2ccncc2)CC2CC1C2(C)C (stereo in doubt; 19),1.8 µM and 1.7 µM
14,CC1CCC(OC(=O)Cc2ccncc2)CC1 (trans isomer),4.4 µM and 4.2 µM

# Continued, values first:
row,IC50,SMILES
1,> 100 µM,CC(C)OC(=O)Cc1ccncc1
2,17 µM and 13 µM,CC(C)CC(C)OC(=O)Cc1ccncc1 (stereo unspecified)
3,32 µM and 28 µM,CC1CCC(OC(=O)Cc2ccncc2)C1 (stereo unspecified)
4,131 µM and 77 µM,O=C(Cc1ccncc1)OC1CCCC1
5,> 100 µM,CC(C)CCOC(=O)Cc1ccncc1
6,5.1 µM and 4.5 µM,CC1CCC(C(C)C)C(OC(=O)Cc2ccncc2)C1 (stereo in doubt; 12)
7,15 µM and 12 µM,CC1CCC(C(C)C)C(OC(=O)Cc2ccncc2)C1 (stereo in doubt; 13)
